The values that follow come from patent publication US12344584B2, “KCNQ potentiators” (Eli Lilly and Company, priority 2019, dated 2025).

Structures are written as SMILES.

Test [1] deals with peripheral axons. The experiment in a line: Threshold tracking of peripheral nerve excitability in anesthetized rats. It counts as in vivo. To be noted: rat, dosed 45 min after Example 1 at 30 mg/kg. As to the method:
Threshold Tracking to Measure the Effects of Example 1 at 3.10 and 30 mg/kg IP on Peripheral Nerve Excitability
Threshold tracking is a non-invasive technique that allows measurement of the excitability properties of peripheral axons by providing information about their membrane potential and ion channel function.
16 male Wistar rats from Charles River, weighing between 307-446 g ware used. Animals are group housed with standard housing conditions (4 per cage, 07:00 h to 19:00 h light phase, constant temperature (21° C.) and humidity, and free access to food and water, as well as environmental enrichment).
Rats are anesthetized with isoflurane (2-2.5%, O2 at 0.5 L/min) and then placed on their back on a heating pad to keep the tail temperature above 32° C. The placement of the ring electrodes are marked out and the marked sections of the tail are scraped with a blade to remove hair and the top layer of skin. The sites are cleaned with water and dried, allowing fora good conduction between the skin and the sticky electrodes.
A sticky ring stimulating electrode (+ve anode) is wrapped around the foot. A second sticky ring stimulating electrode (−ve cathode) is wrapped 1.5 cm from the base of the tail. A needle recording electrode is placed just off center on the top of the tail, 6 cm distal to the stimulating cathode at the base of the tail. A needle reference electrode is placed just off center on the top of the tail, 2 cm distal to the recording electrode. A sticky ground electrode is wrapped around the tail 2 cm proximal from the recording electrode.
• Start the Multitrack program (description below) and Spike. • Record 15 min of stable baseline • After the 15 min, dose with Example 1 or HEC • Take blood spot for PK at the following: • 10 min post dose • 20 min post dose • 30 min post dose • 40 min post dose • 45 min after IP (intraperitoneal) dosing with Example 1, dose XE-991 (XE-991 is a commercially available compound that blocks KCNQ potentiator effects in a formalin assay in vivo—see Y. Zheng, et al., “Activation of peripheral KCNQ channels relieves gout pain,” Pain, 156 (2015) 1025-1035; and R. Zaczek, et al., “Two New Potent Neurotransmitter Release Enhancers, 10,10-Bis(4-Pyridinylmethyl)-9(10H)-Anthracenone and 10,10-Bis(2-Fluoro-4-Pyridinylmethyl)-9(10H)-Anthracenone: Comparison to Linopirdine” The Journal of Pharmacology and Experimental Therapeutics, 285:724-730, 1998. • (XE-991 is only dosed after Example 1 at 30 mg/kg) • Take blood spot for PK at the following: • 10 min post dose (55 min post Example 1 administration) • 20 min post dose (65 min post Example 1 administration) • 30 min post dose (75 min post Example 1 administration) • 40 min post dose (85 min post Example 1 administration)
In threshold tracking assay to measure the excitability properties of peripheral axons studies in rat, compound is administered by IP at 3, 10 or 30 mg/kg using 1% hydroxyethylcellulose: 0.25% polysorbate 80:0.05% antifoam:purified water (HEC) formulation. Dry blood spots (DBS) are collected around 10, 20, 30 and terminal 40 min post-dose. DBS samples are dried at RT for around 2 h. Brain samples are obtained at terminal time point and frozen until analysis. DBS samples are shipped and stored at RT.

Test [2] addresses T1, hKv7.2 and hKv7.3 (Kv7.2/7.3) (Homo sapiens, UniProt O43525+O43526).
T1 construct: host or cells: HEK293
The experiment in a line: Modulation of Kv7.2/7.3 conductance, automated electrophysiology (IonWorks Barracuda, population patch clamp) in HEK293 cells. The format is cell-based. The arrangement: Voltage Shift ([…]V0.5), Mean: unit not given here. To be noted: for Maximal Shift (efficacy) / Slope / EC50: 4-parameter logistic fit of voltage shift data; for EC50: read-out: EC50 (potency of V0.5 shift). As to the method: Modulation of Kv7.2/7.3 Conductance by Kv7 Potentiators in a Mammalian Expression System
The potency and efficacy of Kv7 potentiators is assessed by automated electrophysiology on the IonWorks Barracuda (Molecular Devices) platform using the population patch clamp mode of the instrument.
Cell Culture: HEK293 cells stably expressing hKv7.2 (under tetracycline induction) and hKv7.3 (Catalog #CT6147, Charles River) are used for these studies. Cells are maintained in a Dulbecco's modified Eagle's medium/nutrient mixture Ham's F-12 (Sigma-Aldrich) supplemented with 5% tetracycline-screened fetal bovine serum (Sigma-Aldrich), 15 mM HEPES, 500 μg/mL G418, 100 U/mL penicillin, 100 μg/mL streptomycin, […] L-glutamine, 100 μg/mL zeocin, and 5 μg/mL blasticidin. Expression of hKv7.2 is induced by addition of 1 μg/mL doxycycline 24 h prior to recordings.
Cells are cultured in Corning T-150 flasks to a confluence of 85%-95%. At the start of an experiment, cells are washed once with D-PBS without calcium and magnesium and then dissociated by incubating in 3 ml of 0.25% trypsin for 8 min at 37° C. Cells ware resuspended in media, triturated gently, and centrifuged for 4 min at 1,000 rpm. Cells are resuspended in external solution to a final concentration of 2.5-3.5M cells/mL.
Solutions: External solution w is composed of (in mM): 140 NaCl, 5 KCl, 2 CaCl2, 1 MgCl2, 10 HEPES, 10 Glucose, pH 7.4. Internal solution is composed of (in mM): 90 K-gluconate, 40 KCl, 3.2 EGTA, 3.2 MgCl2, 5 HEPES, pH 7.25. The membrane perforating agent amphotericin B is prepared daily as a 27 mg/mL stock solution in DMSO and then added to the internal solution to a final concentration of 0.1 mg/mL. Test article dilutions are prepared in 384-well plates from 10 mM DMSO stock solutions and diluted using acoustic dispensing (Labcyte ECHO®), such that final DMSO concentrations are 0.1%.
Electrophysiological Recordings: Resuspended cells are placed on the IONWORKS® BARRACUDA™ (IWB) instrument, external solution is added to a 384-well patch plate, and a hole test is performed to determine blocked wells and offset voltages. Cells are then added to the patch plate (9 μL per well) by the instrument. Two seal tests are performed prior to introducing the perforating agent amphotericin in the internal solution and allowing approximately 8 min to obtain electrical access, which is verified by a third seal test. The command voltage protocol consists of a family of 1 sec voltages steps from −80 mV to +40 mV from a holding potential of −80 mV and is applied prior to (baseline) and 6 min after test article addition.
Data Analysis: Data are acquired and leak subtracted using IWB software. Current amplitudes during the last 10 msec of each voltage step are averaged and exported. Further analysis is performed using Microsoft Excel and GraphPad Prism. Current amplitude is converted to conductance (G) by the following formula: G=I/(V−Ek) where I=current, V=step potential, Ek=potassium reversal potential (−84 mV). Conductance in the presence of test article is normalized to the baseline conductance at +40 mV for the same well. Conductance-voltage (G−V) curves are fitted with the Boltzmann equation y=Bottom+(Top−Bottom)/(1+EXP((Vm−V0.5/k)).
Fitting a 4-parameter logistic equation to the data may be used to determine the potency (EC50) and efficacy (maximal shift) for each test compound.
In general terms: Patch clamp records ionic current or voltage across a cell membrane.

Setting [3] is: 10 μM, difference from control in voltage at half-maximal conductance.

Regarding `O=C1c2ccccc2C(Cc2ccncc2)(Cc2ccncc2)c2ccccc21` [XE-991, reference compound], the “reversal of the Example 1 induced increase in absolute threshold” value in test [1] is listed as “able to reverse this increase”.

With `O=C(NCCC1(C(F)(F)F)CC1)NCc1ccnc(OCC(F)(F)F)c1` [Example 3, 1-[[2-(2,2,2-trifluoroethoxy)-4-pyridyl]methyl]-3-[2-[1-(trifluoromethyl)cyclopropyl]ethyl]urea], the “Voltage Shift ([…]V0.5), Mean” value in test [2] (0.0005 μM) is recorded as 3.9; in test [2] (0.0015 μM) it was 0.1; in test [2] (0.005 μM), 1.9; in test [2] (0.01 μM) it was −1.8; in test [2] (0.04 μM), −4.4; in test [2] (0.12 μM), −11.0. Also, the “Voltage Shift ([…]V0.5), Mean” value in test [2] (0.37 μM) was −19.6; in test [2] (1.11 μM), −21.9; in test [2] (3.33 μM), −23.9; in test [2] (setting [3]), −21.9. The “Maximal Shift (efficacy)” value in test [2] is −23. Also, the Slope in test [2] was 1.1. In test [2], the EC50 amounted to 100 nM.

In the case of `O=C(NCc1ccnc(OCC(F)(F)F)c1)NCC(O)C1(C(F)(F)F)CC1` (single isomer, unassigned) [Example 2, (+)-1-[2-hydroxy-2-[1-(trifluoromethyl)cyclopropyl]ethyl]-3-[[2-(2,2,2-trifluoroethoxy)-4-pyridyl]methyl]urea and (−)1-[2-hydroxy-2-[1-(trifluoromethyl)cyclopropyl]ethyl]-3-[[2-(2,2,2-trifluoroethoxy)-4-pyridyl]methyl]urea], the “Voltage Shift ([…]V0.5), Mean” value in test [2] (0.0005 μM) amounted to 6.1; in test [2] (0.0015 μM) it was 4.1; in test [2] (0.005 μM), 5.0; in test [2] (0.01 μM), 4.1; in test [2] (0.04 μM) it was 7.4; in test [2] (0.12 μM) it was 2.9. The “Voltage Shift ([…]V0.5), Mean” value in test [2] (0.37 μM) was −1.9; in test [2] (1.11 μM), −10.6; in test [2] (3.33 μM), −23.0; in test [2] (setting [3]) it was −25.8. For the same compound, in test [2], the “Maximal Shift (efficacy)” value is listed as −28. The Slope in test [2] is on record as 1.3. Moreover, the EC50 in test [2] was determined as 1100 nM.
